Assay results as given in US8420652B2, “Use of aryl piperazine derivatives in manufacturing medicants for treating pain” (NHWA Pharma Corporation, priority 2008, dated 2013).
Where two headings read alike, the source gives them in different places.

Columns and labels:
Assay type in all cases: in vivo
KM female mice = assay: Hot-plate test in mice; conditions: for ED50: Mus musculus, 1 h, read-out: ED50, analgesic activity in the hot-plate test
Source text: Hot-plate test is one of conventional physiological pain models. Mice lick hind paws, jump up and so on when they are subject to thermal stimulus. Analgesics that take effect on central nervous system can increase the thermo-pain threshold, prolong the latency of protective response.
KM female mice weighting 18-22 g were employed in the test. Primary screening was done before the test to remove the animals whose responses were too slow (>30 s) or too sensitive (<6 s). The mice passing the primary screening were divided into a negative control group, a morphine control group and a group of the compound of the invention. Each group of mice were respectively administered corresponding dose of medicine intragastrically or by intravenous injection, and 60 minutes later, a hot-plate test was done on those mice. The time of first licking hind paws and jumping up was recorded (the data over 60 s is recorded as 60) and compared with the latency of the animals in the control group. The analgesic activity of each dose was calculated and ED50 was calculated from the analgesic activity.

Sprague-Dawley (SD) rats [1] = assay: Bee venom test; conditions: for ED50, analgesic activity in the bee venom test: intrathecally, bee venom 5 minutes after administration; for ED50: Rattus norvegicus, central, 5 min, read-out: ED50, analgesic activity in the bee venom test
Experimental: Adult male Sprague-Dawley (SD) rats weighting 200-250 g were used in the test after acclimation by feeding for 1 week. First, tubes were placed intrathecally (i.t.) in rats. The rats with good conditions after 3-4 days were selected for the bee venom test. The animals were divided into an intrathecal DMSO group, an intrathecal morphine group and a group of intrathecal compounds of the invention. 5 minutes after administration, each group of rats was […] injected with 50 μl of bee venom at their left hind limbs. Times of feet spontaneous drawing back every 5 minutes in 60 minutes, as well as total times of feet drawing back in an hour were observed and recorded. The response latency to heat stimulus and threshold of mechanical stimulus on both thenars of each group of rats were measured before intrathecal administration and 2 hours after bee venom injection respectively.

Sprague-Dawley (SD) rats [2] = assay: Spared nerve injury (SNI) test; conditions: intragastrically on Day 12, 13, 14 after surgery, mechanical allodynia at 60 minutes after administration; for ED50: Rattus norvegicus, po, read-out: ED50, analgesic activity in the spared nerve injury (SNI) test
Source text: Neuropathic pain is also called for short as neuralgia, which is a common chronic pain. It is an abnormal pain condition caused by hurt or disease-induced trauma of peripheral or central nerve, and can not be cured effectively till now. Sciatic nerve branches selective injury model (spared nerve injury, SNI) is a neuralgia model established in 2000 (see Spared nerve injury: an animal model of persistent peripheral neuropathic pain, Pain, 2000 August; 87(2): 149-58). The model can produce […] robust mechanical allodynia, so it can simulate the clinic nerve pathologic pain relatively well.
Adult male Sprague-Dawley (SD) rats weighting 200-250 g (Experimental Animal Center of Xuzhou Medical College) were employed in the test after acclimation by feeding for 1 week. First, Sciatic nerve branches selective injury model (spared nerve injury, SNI) was replicated, The rats of successful modeling were administered intragastrically on Day 12, 13, 14 after surgery. The mechanical allodynia were measured at 60 minutes after administration every day (von Frey Cilia Apparatus, manufactured by Institute of Biology Bioengineering, Chinese Academy of Medical Science).

Kunming mice = assay: Acetic acid-induced writhing test; conditions: for ED50: Mus musculus, read-out: ED50, analgesic activity in writhing test
Experimental: Kunming mice (18-22 g, male and female each half) were divided into a negative control group, an Aspirin control group, a morphine control group and a group of the compound of the invention. Each group of mice were respectively administered corresponding medicine (0.2 ml/10 g) intragastrically or subcutaneously, The mice of the negative control group were administered, the same volume vehicle. After 60 minutes (intragastrically) or 30 minutes (subcutaneously), each group of mice were administered 0.6% acetic acid solution (0.4 ml) by intraperitoneal injecting, and then writhing times in 15 minutes were observed and recorded immediately. Writhing inhibition rate in mice was used as the pharmacodynamic index of analgesic activity. Writhing inhibition rate(%)=(writhing times of negative control group−writhing times of medicine group)/Writhing times of negative control group×100%
ED50 values were calculated according to the result.

[3] = intragastrically, tested 60 minutes after dosing
[4] = intravenous injection, tested 60 minutes after dosing
[5] = intragastrically, acetic acid 60 minutes after dosing, writhing times in 15 minutes
[6] = subcutaneously (S. C), acetic acid 30 minutes after dosing, writhing times in 15 minutes
[7] = po, intragastrically, acetic acid 60 minutes after dosing, writhing times in 15 minutes
[8] = sc, subcutaneously (S. C), acetic acid 30 minutes after dosing, writhing times in 15 minutes

SMILES	ED50, analgesic activity in the hot-plate test (KM female mice; [3]) [mg/kg]	ED50, analgesic activity in the hot-plate test (KM female mice; [4]) [mg/kg]	ED50, analgesic activity in the bee venom test (Sprague-Dawley (SD) rats [1]) [mg/kg]	ED50, analgesic activity in the spared nerve injury (SNI) test (Sprague-Dawley (SD) rats [2]) [mg/kg]	ED50, analgesic activity in writhing test (Kunming mice; [5]) [mg/kg]	ED50, analgesic activity in writhing test (Kunming mice; [6]) [mg/kg]	also measured
COc1ccc2nc(N3CCN(CC(=O)c4ccccc4)CC3)sc2c1 [Example 11]	150	60	0.2	180	200	120	
O=C(CN1CCN(c2nc3ccc(Cl)cc3s2)CC1)c1ccccc1 [Example 14]				152	152	78	
COc1cccc(N2CCN(CC(=O)c3ccccc3)CC2)c1 [Example 2]			0.1	15	5	2	
O=C(CN1CCN(c2cccc(Cl)c2)CC1)c1ccccc1 [Example 5]	55	20	0.06	80	50	18	
Cc1ccc2nc(N3CCN(CC(=O)c4ccccc4)CC3)sc2c1 [Example 12]				200	180	100	
O=C(CN1CCN(c2ncccn2)CC1)c1ccccc1 [Example 16]							ED50 (Sprague-Dawley (SD) rats [2]): 167 mg/kg; ED50 (Kunming mice; [7]): 132 mg/kg; ED50 (Kunming mice; [8]): 100 mg/kg
O=C(CN1CCN(c2cccc(C(F)(F)F)c2)CC1)c1ccccc1 [Example 9]	20	5	0.02	10	3	2	
COc1ccc(N2CCN(CC(=O)c3ccccc3)CC2)cc1 [Example 3]	50	19		30	30	20	
NCC1(CC(=O)O)CCCCC1 [Gabapentin, reference compound]							ED50 (Sprague-Dawley (SD) rats [2]): 50 mg/kg
CC(=O)Oc1ccccc1C(=O)O [Aspirin, reference compound]							ED50 (Kunming mice; [7]): 100 mg/kg; ED50 (Kunming mice; [8]): 80 mg/kg
O=C(CN1CCN(c2cccc(Cl)c2Cl)CC1)c1ccccc1 [Example 7]	60	20	0.08	60	60	20	
COc1ccccc1N1CCN(CC(=O)c2ccccc2)CC1 [Example 1]	25	8		40	20	15	
O=C(CN1CCN(c2ccc(F)cc2)CC1)c1ccccc1 [Example 8]							ED50 (KM female mice; [4]): 40 mg/kg; ED50 (KM female mice; po, intragastrically, tested 60 minutes after dosing): 120 mg/kg; ED50 (Sprague-Dawley (SD) rats [1]): 0.12 mg/kg; ED50 (Sprague-Dawley (SD) rats [2]): 150 mg/kg; ED50 (Kunming mice; [7]): 120 mg/kg; ED50 (Kunming mice; [8]): 80 mg/kg
CN1CC[C@]23c4c5ccc(O)c4O[C@H]2[C@@H](O)C=C[C@H]3[C@H]1C5 [Morphine, reference compound]							ED50 (KM female mice; iv): 1 mg/kg; ED50 (KM female mice; po): 2 mg/kg; ED50 (Sprague-Dawley (SD) rats [1]): 0.005 mg/kg; ED50 (Kunming mice; po): 4 mg/kg; ED50 (Kunming mice; sc): 1 mg/kg
Cc1cccc(N2CCN(CC(=O)c3ccccc3)CC2)c1C [Example 10]	30	10	0.03	15	5	10	
O=C(CN1CCN(c2ccccc2Cl)CC1)c1ccccc1 [Example 4]				100	80	36	
